*1 amine or outer side, *2 acyl side, *3 side chain or, on linkers, in order; H or OH if unused. The star is where a group is joined. Fmoc = O=C(OCC1c2ccccc2-c2ccccc21)*; Glutaryl = O=C(CCCC(=O)[*:2])[*:1]
What was measured:
[1] = target: T1, fibrin (in vitro human plasma clot) (Homo sapiens, UniProt P02671+P02675+P02679); assay: Incorporation into human plasma clots in vitro; type: biochemical; conditions: for % specific uptake: % retained (with thrombin) - % retained (no thrombin); for % retained (no thrombin): control without thrombin and calcium chloride (non-specific binding); for % retained (with thrombin): human plasma clot, 60 minutes, ca. 20° C.
T1 construct: about 400 μl of human plasma containing the radiolabelled substrate; from tissue; host or cells: human plasma, clotted in vitro with added thrombin and calcium chloride
T1 sequence (P02671 20-644 isoform P02671-2 limits assumed): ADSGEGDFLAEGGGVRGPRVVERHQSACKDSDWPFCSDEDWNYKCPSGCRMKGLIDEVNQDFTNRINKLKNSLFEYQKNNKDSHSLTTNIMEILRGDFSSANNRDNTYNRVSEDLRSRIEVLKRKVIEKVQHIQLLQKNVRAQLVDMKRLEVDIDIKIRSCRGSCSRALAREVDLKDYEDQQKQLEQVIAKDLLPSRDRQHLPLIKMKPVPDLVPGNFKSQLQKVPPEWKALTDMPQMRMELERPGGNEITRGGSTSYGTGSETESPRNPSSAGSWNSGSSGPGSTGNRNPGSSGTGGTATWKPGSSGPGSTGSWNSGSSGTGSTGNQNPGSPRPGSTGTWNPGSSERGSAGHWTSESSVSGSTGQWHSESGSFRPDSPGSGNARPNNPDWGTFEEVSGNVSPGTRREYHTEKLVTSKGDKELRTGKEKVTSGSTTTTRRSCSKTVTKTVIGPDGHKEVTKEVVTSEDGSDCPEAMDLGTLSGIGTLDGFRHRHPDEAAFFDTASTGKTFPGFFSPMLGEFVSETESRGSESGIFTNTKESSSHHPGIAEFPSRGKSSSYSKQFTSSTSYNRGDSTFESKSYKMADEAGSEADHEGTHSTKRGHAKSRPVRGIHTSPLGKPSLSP
T1 sequence (P02675 45-491 limits assumed): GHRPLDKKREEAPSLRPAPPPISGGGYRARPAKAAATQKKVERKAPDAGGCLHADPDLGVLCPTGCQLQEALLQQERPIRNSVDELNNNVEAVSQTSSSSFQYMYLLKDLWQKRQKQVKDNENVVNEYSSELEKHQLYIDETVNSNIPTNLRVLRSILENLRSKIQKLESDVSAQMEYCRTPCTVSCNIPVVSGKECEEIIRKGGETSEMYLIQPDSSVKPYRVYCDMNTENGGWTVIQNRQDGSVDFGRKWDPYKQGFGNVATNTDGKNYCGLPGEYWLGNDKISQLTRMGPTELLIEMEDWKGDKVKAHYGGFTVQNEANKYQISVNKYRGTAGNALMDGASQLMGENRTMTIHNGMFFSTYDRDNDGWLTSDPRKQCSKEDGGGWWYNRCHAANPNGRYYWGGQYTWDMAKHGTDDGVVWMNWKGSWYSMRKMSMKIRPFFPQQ
T1 sequence (P02679 27-437 isoform P02679-2 limits assumed): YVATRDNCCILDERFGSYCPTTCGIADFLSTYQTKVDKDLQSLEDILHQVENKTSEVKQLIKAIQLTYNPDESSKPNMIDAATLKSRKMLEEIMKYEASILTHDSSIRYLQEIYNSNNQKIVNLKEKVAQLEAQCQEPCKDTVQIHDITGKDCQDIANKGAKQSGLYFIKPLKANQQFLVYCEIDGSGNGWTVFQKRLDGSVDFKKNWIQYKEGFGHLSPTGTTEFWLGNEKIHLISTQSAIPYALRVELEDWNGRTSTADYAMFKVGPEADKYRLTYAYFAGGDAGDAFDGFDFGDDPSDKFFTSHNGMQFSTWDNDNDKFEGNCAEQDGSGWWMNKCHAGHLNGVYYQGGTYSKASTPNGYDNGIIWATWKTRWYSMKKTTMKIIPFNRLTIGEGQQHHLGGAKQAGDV
Procedure: Incorporation of radiolabelled substrates into fibrin was investigated by induction of an in vitro human plasma clot in the following manner. To a siliconised 5 ml glass vial was added, (a) 800 μl of Tris(hydroxymethyl)aminomethane buffered saline pH 7.5 containing calcium chloride (50 mM Tris, 150 mM sodium chloride, 4 mM calcium chloride.), (b) about 40 μl of physiological salt solution containing 100 units of thrombin per ml, (c) about 400 μl of human plasma containing the radiolabelled substrate at a concentration of typically 10 kBq/ml. To aid induction of clot a roughened glass rod was added to the reaction vial. Control vials were prepared similarly but with the omission of thrombin and calcium chloride.
After incubation of the test solution at ambient laboratory temperature (ca. 20° C.) for 60 minutes the reaction was discontinued with the addition of about 400 μl of a cold solution of 33.5 mM ethylenediaminetetra-acetic acid disodium salt. Clots were separated from serum by vacuum filtration onto […] nitrocellulose filters (pre-soaked in 1.5% BSA/tris(hydroxymethyl)aminoethae buffered saline pH 7.5 containing 0.1% Tween 20) and washed with about 2×10 ml of tris(hydroxymethyl)aminomethane buffered saline pH 7.5 containing Tween 20 to a final concentration of 0.1% v/v. The proportion of total radioactivity was calculated by counting in suitable detection apparatus.
The fraction of radioactivity retained on the filter, after subtraction of the non-specific binding determined from the control, is a measure of incorporation into the filtered clots.

[2] = Incorporation into clots induced in a rat model (rat inferior vena cava model); type: in vivo, rat (Male Wistar); conditions: for % id/g (clot) / Rel. Conc. (cpm/g of clot by dose/g animal): sacrificed after 60 min
Procedure: The rats (Male Wistar, 250–350 g) were anaesthetised with 15% urethane. After laparotomy, the vena cava was isolated and freed of surrounding fat tissue. […] The compounds were injected 5 min (fresh clot) and 60 min (aged clot) post-induction. After 60 min the animals were sacrificed and the clot removed, weighed and counted. Other tissues e.g. blood, lung, heart, were also dissected and counted. The uptake of tracer into the clot was determined as the relative concentration (cpm/g of clot by dose/g animal) and clot to background tissue.

[3] = Aged Clots: injected 60 min post-induction
[4] = Fresh Clots: injected 5 min post-induction

Row | % specific uptake [1] [%] | % retained (no thrombin) [1] [%] | % retained (with thrombin) [1] [%] | in vitro clot uptake (in words) ([1]; in vitro clot) | Substance | Clot/blood ([2]; Aged Clots) | Clot/heart ([2]; Aged Clots) | Clot/liver ([2]; Aged Clots) | Clot/lung ([2]; Aged Clots) | % id/g (clot) [2, 3] [% id/g] | Rel. Conc. (cpm/g of clot by dose/g animal) [2, 3] | Clot/blood ([2]; Fresh Clots) | Clot/heart ([2]; Fresh Clots) | Clot/liver ([2]; Fresh Clots) | Clot/lung ([2]; Fresh Clots) | % id/g (clot) [2, 4] [% id/g] | Rel. Conc. (cpm/g of clot by dose/g animal) [2, 4]
1 | 42.8 | 2.7 | 44.5 | – | Fmoc-NQEQVSPYTLLKG-Pn216 (also: 99mTc complex) [^99mTc-Cmpd 9] | 8 | 21 | 6 | 7 | 3.7 ± 0.4 | 11.4 ± 1.5 | 13 | 32 | 13 | 12 | 8.8 ± 3.6 | 24.8 ± 9.6
2 | 13.8 | 0.3 | 14.1 | – | Cyclo-[NQEQVSPYTLLKG] (cyclo(NQEQVSPYTLLKG); also: 123I label, place not given here) [^123I-Cmpd 44] | 0.9 | 1 | 1 | 2 | 0.5 ± 0.03 | 1.2 ± 0.1 | 0.9 | 1 | 2 | 1.5 | 0.4 ± 0.1 | 1.1 ± 0.2
3 | 20.3 | 0.7 | 21.0 | – | Pn44-CO(CH2)3CO-NQEQVSPYTLLKG-NH2 ({Pn44-Glutaryl}-NQEQVSPYTLLKG-NH2; also: 99mTc complex) [^99mTc-Cmpd 38] | 3 | 1 | 2 | 0.5 | 0.8 ± 0.3 | 2.4 ± 0.7 | 5 | 15 | 3 | 6 | 1.9 ± 0.5 | 5.4 ± 1.5
4 | 8.6 | 0.1 | 8.7 | significant reduction in uptake | Pn216-CO(CH2)3CO-G(D-K)(D-L)(D-L)(D-T)(D-Y)(D-P)(D-S)(D-V)NH2 [^99mTc-Cmpd 36] | 0.6 | 18 | 4 | 10 | 0.1 ± 0.02 | 0.2 ± 0.1 | 1 | 3 | 4 | 1 | 0.2 ± 0.1 | 0.7 ± 0.3

— patent publication US7049289B1, “Labelled glutamine and lysine analogues” (Amersham PLC, priority 1998, dated 2006)
